Test results: patent US5770380A (priority 1996, dated 1998)

Target: Horse Cytochrome c (Equus caballus, UniProt P00004)
Assay: Micro calorimetry titration of Cytochrome c
Format: binding
Conditions: micro calorimetry titration (FIG. 9); read-out: association constant (converted)
Description: FIG. 9 illustrates a micro calorimetry titration of Cytochrome c with a preferred embodiment of the present invention.
Horse Cytochrome c is an electron-transferring protein with a heme prosthetic group. The size of this protein is 12,384 Dalton and the surface is highly positively charged with lysine and arginine residues. For the X-ray crystal structure of Cytochrome c, see: Bushnell, G. W.; Louie, G. D.; Brayer, G. D. J. Mol. Biol. 1990, 214, 585. NMR titration of Cytochrome c with a preferred embodiment of the invention, designated 1 below, was performed under the condition described in FIG. 8 and two of the hyperfine region protons from heme in Cytochrome c, heme 8-CH3 and heme 3-CH3, were followed. […] The direction and the size of shifts are about the same as those of the titration between Cytochrome c and Cytochrome c peroxydase and peak broadening was also observed in the peroxydase titration. For NMR titration of cytochrome c and cytochrome-c peroxydase, see: Satterlee, J. D.; Moench, S. J.; Erman, J. E. Biochemica et Boiphysica Acta 1987, 912, 87-97. FIG. 8 is consistent with 1:1 binding. [drawing 1] Micro calorimetry titration of Cytochrome c with 1 was also performed (see FIG. 9). The association constant was calculated as 136000M^-1 therefore ΔG=-7.0 kcal/mol. As the enthalpy of the binding event is simulated as -5.6 kcal/mol, the entropy portion should be -1.4 kcal/mol. […]

Chain of Horse Cytochrome c (P00004 whole entry): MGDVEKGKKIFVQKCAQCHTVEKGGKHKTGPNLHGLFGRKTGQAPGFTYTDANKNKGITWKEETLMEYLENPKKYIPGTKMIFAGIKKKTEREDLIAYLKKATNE

Work on `CCCCOc1c2cc(C(=O)Nc3cc4cc(c3)C(=O)NCC(=O)N[C@@H](CC(=O)O)C(=O)NCC(=O)N[C@@H](CC(=O)O)C(=O)NC4)cc1Cc1cc(C(=O)Nc3cc4cc(c3)C(=O)NCC(=O)N[C@@H](CC(=O)O)C(=O)NCC(=O)N[C@@H](CC(=O)O)C(=O)NC4)cc(c1OCCCC)Cc1cc(C(=O)Nc3cc4cc(c3)C(=O)NCC(=O)N[C@@H](CC(=O)O)C(=O)NCC(=O)N[C@@H](CC(=O)O)C(=O)NC4)cc(c1OCCCC)Cc1cc(C(=O)Nc3cc4cc(c3)C(=O)NCC(=O)N[C@@H](CC(=O)O)C(=O)NCC(=O)N[C@@H](CC(=O)O)C(=O)NC4)cc(c1OCCCC)C2` [compound 1, Calix[4]arenetetracyclicpeptide1] yielded a Kd of 7.35 µM.
